Data from patent US8283481B2, “Inhibitors of a 9-cis epoxycarotenoid dioxygenase” (National Research Council of Canada, priority 2008, dated 2012).

Legend:
[1] = system: ABA and catabolites in Arabidopsis thaliana Col-0 plants; experiment: Total ABA metabolite levels in mannitol stressed plants treated with SLCCD inhibitors; type: in vivo; details: for effect on ABA and catabolite pools under osmotic stress, compared with 13 (in words): whole time course
Procedure: For each condition to be tested, three hundred wild-type Arabidopsis thaliana Col-0 seeds (LEHLE) were sterilized, vernalized and sewn onto 200 mL of Sunshine Mix #3 (Sun Gro) potting material in an 8×8×4 cm pot. Plants were watered continuously with 25 g/100 mL of 20-20-20 (PlantProd™) fertilizer and grown at 22° C. with a 16 hour photoperiod for 22 days. Plants were pre-treated with 50 mL/pot of Buffer A (10 mM HEPES pH 6.5) (Sigma)+/−10 or 33 μM test compound for 2 hours. Plants were then soaked with 50 mL/pot of Buffer A containing 0.4 M mannitol (Sigma)+/−10 or 33 μM test compound. Non-treated/non-stressed control plants were simply soaked in Buffer A at the designated time points. […] Half of the tissue samples were lyophilized for metabolite profiling and the other half taken for quantitative reverse-transcription polymerase chain reaction (qRT-PCR) analysis.
Freeze-dried tissue was homogenized using a multi-tube ball mill (Mini-BeadBeater-96™, Biospec Products Inc., Bartlesville, Okla., USA) and 50 mg of each sample was weighed out into individual Falcon tubes. To each sample, 100 μL of a cocktail of internal standards comprised of (−)-5,8′,8′,8′-d4-ABA, (−)-7′,7′,7′-d3-PA, (−)-5,8′,8′,8′-d4-7′OH ABA, (−)-7′,7′,7′-d3-DPA and (+)-4,5,8′,8′,8′-d5-ABAGE, each at a concentration of 0.2 ng/μL and dissolved in a mixture of water:acetonitrile (1:1, v/v) with 0.5% glacial acetic acid, was added. Further, 3 mL of isopropanol:water:glacial acetic acid (80:19:1, v/v/v) extraction solvent was added, and samples were placed in the fridge (4° C., in the dark) on an orbital shaker at about 350 rpm. After 18-24 hours, the samples were centrifuged at 4.4 krpm for 10 min, the supernatant was transferred to a disposable culture tube, and a second portion of 500 μL extraction solvent mixture was added to wash the pellet. After vortexing and centrifuging again at 4.4 krpm for 10 min, each wash was combined with its appropriate supernatant. The organic extract was dried under reduced pressure, then re-dissolved in 100 μL methanol:glacial acetic acid (99:1, v/v) followed by 900 μL of aqueous 1% glacial acetic acid. This mixture was extracted with 2 mL hexane, and then the aqueous layer was dried down under reduced pressure. The sample was further reconstituted in 2 mL aqueous 1% glacial acetic acid and loaded onto an Oasis MCX SPE cartridge (3 cc, Waters Corporation, Mississauga, Ontario, Canada). After a wash with 3 mL aqueous 1% glacial acetic acid, samples were eluted with 1 mL methanol:glacial acetic acid (99:1, v/v) and then dried down under reduced pressure. The extract was re-dissolved in 100 μL methanol:glacial acetic acid (99:1, v/v) followed by 900 μL of aqueous 1% glacial acetic acid. This mixture was further cleaned on an Oasis HLB SPE cartridge (1 cc, Waters Corporation, Mississauga, Ontario, Canada). After a wash with 1 mL aqueous 1% glacial acetic acid, the fraction containing ABA and ABA metabolites was eluted with 1 mL acetonitrile:water:glacial acetic acid (30:69:1, v/v/v) and then was evaporated to dryness. The final residue was dissolved in 200 μL of acetonitrile:water (15:85, v/v) containing 0.1% glacial acetic acid and 100 pg/μL (±)-3′,5′,5′,7′,7′,7′-d6-ABA as a recovery standard. Finally, the sample was subjected to LC-ES-MS/MS analysis and quantification, as described in Owen and Abrams, 2008.^39

[2] = system: Arabidopsis thaliana Col-0 seeds; experiment: Seed germination assay; type: in vivo
Procedure: Arabidopsis thaliana Col-0 seeds were sterilized by washing them with 10% sodium hypochlorite and 20% sodium dodecyl sulfate (Sigma) for five minutes and then rinsing four times with sterile water. Seeds were moist chilled for 4 days and then plated on germination medium (0.41% MS salts, 1% sucrose, 0.05% MES and 0.1% Gamborg's vitamins, pH 5.7, 0.7% agar) (Sigma) containing either 0.1, 0.33, 1.0 or 3.33 μM of inhibitor or (+)-ABA 1. As a control, seeds were sewn and germinated on media only without inhibitors or (+)-ABA 1. Germination was recorded over seven days and indexes calculated as described previously.^40

[3] = system: AtNCED3; experiment: qRT-PCR transcript level in mannitol stressed plants: AtNCED3; type: in vivo, Arabidopsis thaliana; details: 10 and 33 μM, mannitol stress
Procedure: For each condition to be tested, three hundred wild-type Arabidopsis thaliana Col-0 seeds (LEHLE) were sterilized, vernalized and sewn onto 200 mL of Sunshine Mix #3 (Sun Gro) potting material in an 8×8×4 cm pot. Plants were watered continuously with 25 g/100 mL of 20-20-20 (PlantProdTM) fertilizer and grown at 22° C. with a 16 hour photoperiod for 22 days. Plants were pre-treated with 50 mL/pot of Buffer A (10 mM HEPES pH 6.5) (Sigma)+/-10 or 33 μM test compound for 2 hours. Plants were then soaked with 50 mL/pot of Buffer A containing 0.4 M mannitol (Sigma)+/-10 or 33 μM test compound. Non-treated/non-stressed control plants were simply soaked in Buffer A at the designated time points. Aerial plant tissue was harvested after 6, 12 and 48 hours from the time of initial inhibitor treatment and flash frozen in liquid nitrogen. Half of the tissue samples were lyophilized for metabolite profiling and the other half taken for quantitative reverse-transcription polymerase chain reaction (qRT-PCR) analysis. […] The resulting mRNA was quantified and checked for quality using a Nano-DropTM ND-1000 Spectrophotometer. QuantiTectTM Reverse Transcription Kit (Qiagen) was used to produce cDNA as directed by the manufacturer from 20 ng of starting mRNA. Quantitative PCR was performed on 1 μL of cDNA product using a Bio-Rad iCyclerTM and the QuantiTectTM SYBR Green PCR Kit (Qiagen) coupled with QuantiTectTM Primer Assays (Qiagen) for the gene targets; […]-112304), Rd29B (NM-124609), CYP707A1 (NM-118043), CYP707A3 (NM-123902) and UBQ10 (NM-178968). The pre-validated primer sets are as follows indicated by the GeneGlobe (www1.qiagen.com/GeneGlobe/default.aspx) product name and (catalogue number): At_NCED3-1_SG (QT00769573), At_RD29B-1_SG (QT00840399), At_CYP707A1-1_SG (QT00808339), At_CYP707A3-1_SG (QT00739242), At_UBQ10_va.1_SG (QT01123745). Relative changes in transcript level were normalized using UBQ10 and quantified as previously described.^41

[4] = highest concentration tested (3.33 μM)
[5] = 33 μM inhibitor, mannitol stress

| Structure (SMILES) | total levels of ABA and catabolites ([1]; 33 μM inhibitor 2 h before and during 0.4 M mannitol stress, 24 hours, mannitol only 15147 pmol/g) [pmol/g] | levels of ABA and catabolites at first time point (in words) ([1]; 33 μM inhibitor, mannitol stress, first 6 hours) | reduction of seed germination ([2]; 1 μM in germination medium) [%] | less effect on germination than (+)-ABA 1 ([2]; compared with (+)-ABA 1) | reduction of seed germination [2, 4] [%] | effect on seed germination at low concentrations (in words) [2] | relative expression level of AtNCED3 in mannitol stressed plants (in words) [3] | effect on ABA and catabolite pools under osmotic stress, compared with 13 (in words) [1, 5] |
| --- | --- | --- | --- | --- | --- | --- | --- | --- |
| CCSCC=C(C)C#CC1(O)C(C)CC(=O)CC1(C)C (racemic) [Compound 13, (4S,5R/4R,5S)-(3′Z)-4-(5′-(Ethylthio)-3′-methylpent-3′-en-1′-ynyl)-4-hydroxy-3,3,5-trimethylcyclohexanone] | 8211 | comparable to those of the non-treated/non-stressed control plants | 26 | 60-70% | 38 | slight promotion effects | decrease the relative expression levels of AtNCED3 | – |
| C/C(C#C[C@@]12O[C@]1(C)C[C@@H](O)CC2(C)C)=C/CNc1ccccc1 [Compound 18, (1R,3S,6R)-(3′Z)-1,5,5-Trimethyl-6-(3′-methyl-5′-(phenylamino)-pent-3′-en-1-ynyl)-7-oxabicyclo[4.1.0]heptan-3-ol] | – | – | 50 | – | 71 | – | similar, although not as pronounced effects | less effective than 13 |
| C/C(C#C[C@@]12O[C@]1(C)C[C@@H](O)CC2(C)C)=C/CSc1ccccc1 [Compound 17, (1R,3S,6R)-(3′Z)-1,5,5-Trimethyl-6-(3′-methyl-5′-(phenylthio)-pent-3′-en-1′-ynyl)-7-oxa-bicyclo[4.1.0]heptan-3-ol] | – | – | 26 | – | 51 | slight promotion effects | similar, although not as pronounced effects | less effective than 13 |
